Patent US9737510B2, “Indazole compounds and a process for the preparation thereof” (Council of Scientific & Industrial Research, priority 2013, dated 2017)
Converted amounts (≈) assume the structure as drawn.

Tests used:
[1] = Kinetic solubility; assay type: physicochemical; conditions: kinetic from dmso stock
[2] = molecular target: CYP3A4 (Homo sapiens, UniProt P08684); test: CYP3A4 inhibition; assay type: in vitro ADME
[3] = test system: MIN6 cells; test: Insulinotropic activity: insulin secretion from MIN6 cells (ELISA based assay); assay type: cell-based, mouse; conditions: for Insulin Secretion: standard error in bracket
Description: Insulinotropic activity of the NDS100178 and NDS100179 was measured by a well-optimized ELISA based Assay (Shantani Protocol #5205) described below.
Materials • MIN6Cell (source: National Center for Cell Sciences, Pune) • Mouse Insulin ELISA kit (Mercodia, 10-1247-01) • Plate Shaker (MixMatefromEppendorf) • HEPES Balanced Krebs-Ringer bicarbonate buffer (components as follows)
Method • i. Seed proliferating culture of MIN-6 cells into a 6 well plate with almost half the confluency two days before the experiment. • ii. One the day of Insulin induction experiment, the cells should become almost confluent and are in good condition. • iii. On the day of experiment, first prepare 1×KRB-HEPES buffer with 0.1% BSA (for rinse) and without BSA (for equilibration and insulin induction) as described in the materials. • iv. Prepare equilibration buffer: 1×KRB-HEPES buffer without BSA containing 3.3 mM glucose (to bring down the glucose level of all cells to the same level). For example, add 66 ul 1 M glucose stock solution to 20 ml KRB-HEPES buffer without BSA. • v. Prepare the stimulating buffer (insulin induction): 1×KRB-HEPES buffer without BSA containing the defined glucose level (in most cases, it will be 16.7 mM glucose) and the desired concentration of molecule. • vi. Pre warm all the buffers to 37° C. in the water bath (at 15 minutes). • vii. Remove media from all wells, rinse each well twice with 2 ml KRB-HEPES buffer containing 0.1% BSA. • viii. Add 2 ml of equilibration buffer in each well and incubate at 37° C. for half an hour. • ix. After the incubation add 2 ml of stimulating buffer in respective wells (properly labelled) and incubate 37° C. for 1 hour. • x. In the meanwhile, turn on the refrigerated centrifuge and set the temperature to 4° C. Take out enzyme conjugate, diluent buffer, Calibrator 0 and stripes needed (for example, two stripes for 8 samples to be run in duplicate) from Mercodia ELISA kit box (store at 4° C.) and warm up them to RT. • xi. […] Centrifuge the tubes at 600 g for 5 min. • xiii. Take out 500 ul in fresh properly labelled precooled tubes. • xiv. Now dilute the samples 1:30 in calibrator 0 i.e. add 3 ul of each sample to 87 ul of Calibrator 0 in 8 different properly labelled 0.5 ml tubes. Mix them well. • xv. Prepare 1× enzyme conjugate buffer, i.e. mix 180 ul enzyme (11×) with 1800 ul diluent buffer for ELISA of two stripes. • xvi. Add 10 ul of each sample (diluted, in duplicate) in the two adjacent wells. Be careful not to touch the bottom. • xvii. Carefully add 100 ul of Enzyme Conjugate buffer (1×) to each well and incubate on a plate shaker (eppendorf MixMate) at 800 rpm for 2 hours at 25° C. • xviii. 45 min before the incubation is over take out wash buffer, substrate TMB and Stop solution. Keep them at RT. • xix. 5 min before the incubation is over prepare 1× wash buffer (21×), i.e. 40 ml distilled water+2 ml (21×) wash buffer in a reservoir. • xx. After the incubation is over, wash each well 7 times with 350 ul wash buffer. Use a multichannel (175 ul). • xxi. After the washing add 200 uL substrate TMB solution in each well. Maintain a proper pace. • xxii. Allow to incubate for 15 min. Set the program on the plate reader, to take absorbance read at 450 nm. Add a 5 sec shake step to allow proper mixing. • xxiii. After incubation immediately add 50 ul Stop solution in each well at same pace and take absorbance read at 450 nm.
Assay conditions were kept same in all the assays. The difference in absorption-value for control experiment (no treatment with molecule) over different days is attributed to cell culture conditions. Other varying conditions are specified in the respective graphs.
[Note: If not mentioned specifically, HG=High Glucose (16.7 mM), LG=Low Glucose (3.3 mM)]

[4] = molecular target: T1, LTA4H (Homo sapiens, UniProt P09960); test: LTA4H inhibition; assay type: biochemical; conditions: read-out: IC50 against LTA4H
T1 sequence (P09960 1-611): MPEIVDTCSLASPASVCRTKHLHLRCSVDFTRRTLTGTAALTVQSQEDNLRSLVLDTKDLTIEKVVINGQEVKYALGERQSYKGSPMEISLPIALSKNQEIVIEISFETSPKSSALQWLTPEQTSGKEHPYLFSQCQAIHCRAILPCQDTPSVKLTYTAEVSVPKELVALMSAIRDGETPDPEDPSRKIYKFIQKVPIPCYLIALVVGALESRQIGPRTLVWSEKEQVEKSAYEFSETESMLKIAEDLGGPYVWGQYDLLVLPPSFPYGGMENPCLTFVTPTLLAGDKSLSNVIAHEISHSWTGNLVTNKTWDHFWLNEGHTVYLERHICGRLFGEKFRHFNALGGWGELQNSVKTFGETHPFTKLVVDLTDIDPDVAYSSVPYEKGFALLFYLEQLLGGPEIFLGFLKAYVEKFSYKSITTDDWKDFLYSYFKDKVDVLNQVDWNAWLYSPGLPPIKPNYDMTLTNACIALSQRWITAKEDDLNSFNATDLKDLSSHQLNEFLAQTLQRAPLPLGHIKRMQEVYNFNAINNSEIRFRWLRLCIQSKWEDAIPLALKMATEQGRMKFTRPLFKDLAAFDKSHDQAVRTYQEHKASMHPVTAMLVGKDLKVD
Description: NDS100178 series of compound primarily activates imidazoline receptor […]. In high glucose condition this activation leads to formation of Diacylglycerol (DAG). DAG subsequently generates Arachidonic Acids (AA) in the cell. Metabolites of AA especially epoxyeicosatrienenoic acids (EETs) and hydroxyeicosatetrenoic acids (HETEs) induce exocytosis leading to increased secretion of insulin from the cells. The other major signalling pathway that can alter the glucose/DAG induced AA pool is the leukotriene pathway, that, by metabolizing AA into different leukotrienes and not EET and HETE can suppress its insulin secretion effect. Molecules that can inhibit metabolism of AA through leukotriene pathway can maintain AA pool leading to its metabolism only through EETs and HETEs and thus can enhance increase insulin secretion. One of the major enzymes in leukotriene pathway is LTA4H hydrolase that converts LTA4 into LTB4, a AA derivative that suppresses insulin secretion. A novel finding that inhibiting LTA4H can enhance insulin secretion has been established by the inventors. NDS100178 inhibits LTA4H (IC50<500 nM) while the IC50 against LTA4H target of compound 6 from patent US20040009976 Compound: 5-Chloro-2-methyl-3-(4,5-dihydro-1-H-imidazol-2-yl)-1H-indole) is above 10 uM.

[5] = Metabolic study and intrinsic clearance in MLM; assay type: in vitro ADME
[6] = Metabolic study in HLM; assay type: in vitro ADME

Chain of CYP3A4 (P08684 whole entry): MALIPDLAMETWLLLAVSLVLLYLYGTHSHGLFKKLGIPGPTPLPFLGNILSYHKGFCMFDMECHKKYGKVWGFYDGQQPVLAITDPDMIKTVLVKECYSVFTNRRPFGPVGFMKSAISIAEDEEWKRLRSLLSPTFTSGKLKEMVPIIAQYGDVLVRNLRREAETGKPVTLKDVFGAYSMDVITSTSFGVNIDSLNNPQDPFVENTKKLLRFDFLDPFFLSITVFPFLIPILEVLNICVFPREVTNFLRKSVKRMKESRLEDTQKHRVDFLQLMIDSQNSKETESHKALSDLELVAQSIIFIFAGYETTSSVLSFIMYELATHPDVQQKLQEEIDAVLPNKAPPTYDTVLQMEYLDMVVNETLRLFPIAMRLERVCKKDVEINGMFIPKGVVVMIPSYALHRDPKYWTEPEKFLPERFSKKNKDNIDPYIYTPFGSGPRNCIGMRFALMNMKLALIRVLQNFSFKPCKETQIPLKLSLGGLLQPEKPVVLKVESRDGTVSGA

Structure (SMILES)	solubility kinetic [1] [µM]	CYP3A4 Inhibition [2]	insulin secretion from MIN6 cells in high glucose conditions ([3]; 33 uM, 1 hour, high glucose (16.7 mM), three different days)	insulin secretion over control ([3]; MIN6 cells, 10 nM)	insulin secretion over control ([3]; MIN6 cells, 50 nM)	increase in insulin secretion ([3]; MIN6 cells, 100 nM)	Insulin Secretion ([3]; MIN6 cells, compound 0.1 μM)	Insulin Secretion ([3]; MIN6 cells, compound 1.0 μM)	Insulin Secretion ([3]; MIN6 cells, compound 10.0 μM)	glucose dependence of insulinotropic activity ([3]; MIN6 cells, high glucose vs lower glucose conditions)	melting point [°C]	IC50 [4] [µM]	Intrinsic Clearnace MLM [5]	Metabolic Study MLM Mean % PCR* [5] [%]	Metabolic Study HLM Mean % PCR* [6] [%]
Clc1ccc2[nH]nc(C3=NCCN3)c2c1 [NDS100178, 5-Chloro-3-(4,5-dihydro-1H-imidazol-2-yl)-1H-indazole]	214 (≈ 47.3 µg/mL)	No inhibition	significant increase in the insulin secretion	No significant difference over the control	No significant difference over the control	more than 100%	8.91 (1.6) ng/ml	12.49 (1.9) ng/ml	35.09 (4.0) ng/ml	glucose dependent	248 to 249	< 0.5	80.8 μl/min/mg of protein	38.84	79.70
Cc1[nH]c2ccc(Cl)cc2c1C1=NCCN1 [Example-6 of Patent US20040009976, 5-Chloro-2-methyl-3-(4,5-dihydro-1-H-imidazol-2-yl)-1H-indole, reference compound]	196 (≈ 45.9 µg/mL)	No inhibition					1.39 (0.15) ng/ml	3.68 (2.11) ng/ml				> 10	21.3 μl/min/mg of protein	64.83	99.11
